Structures are written as SMILES. Like-named read-outs stand apart in the source and are kept apart here. Bounds are passed on as bounds.

Assay [1] deals with human Werner helicase (WRN, amino acids 517-1235 with L1074F point mutation) (Homo sapiens (Human), UniProt Q14191, L1074F). The assay can be described thus: WRN (BV08) ADP-Glo assay. The class given is biochemical. The settings on record: human WRN (aa 517-1235, L1074F), read-out: ADP-Glo_hWRN_IC50. In short, it runs like this: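 Untagged WRN 517-1235 (L1074F), Sf9/baculovirus-expressed, 0.15 nM, preincubated 15 min with compound, then 5 μM ATP and 0.1 nM annealed DNA duplex added; 60 min at 25 °C in Bicine pH 7.5, 1 mM MgCl2, 1% DMSO. ADP-Glo luminescence; % inhibition vs DMSO and 20 μM NSC-617145 controls, four-parameter IC50 fit.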
For orientation: In ADP-Glo the light output rises with the ADP produced.

Assay [2] concerns p21 induction in HCT 116 cells. The assay can be described thus: p21 induction in cells (In-Cell Western, p21/GAPDH ratio). The class given is cell-based. Conditions: 24 h compound incubation, read-out: p21_EC50. Put shortly: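 HCT 116 cells treated 24 h at 37° C with 11-point, 2-fold dilutions typically from 10 μM, in duplicate. Fixed cells co-stained for p21 (800 nm) and GAPDH (700 nm) by In-Cell Western. p21/GAPDH ratio normalised between DMSO and reference WRN inhibitor controls, and EC50 obtained by nonlinear regression.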

Chain of human Werner helicase (WRN, amino acids 517-1235 with L1074F point mutation) (Q14191 other isoform, or with tags, fused parts or gaps L1074F (already in the parent)): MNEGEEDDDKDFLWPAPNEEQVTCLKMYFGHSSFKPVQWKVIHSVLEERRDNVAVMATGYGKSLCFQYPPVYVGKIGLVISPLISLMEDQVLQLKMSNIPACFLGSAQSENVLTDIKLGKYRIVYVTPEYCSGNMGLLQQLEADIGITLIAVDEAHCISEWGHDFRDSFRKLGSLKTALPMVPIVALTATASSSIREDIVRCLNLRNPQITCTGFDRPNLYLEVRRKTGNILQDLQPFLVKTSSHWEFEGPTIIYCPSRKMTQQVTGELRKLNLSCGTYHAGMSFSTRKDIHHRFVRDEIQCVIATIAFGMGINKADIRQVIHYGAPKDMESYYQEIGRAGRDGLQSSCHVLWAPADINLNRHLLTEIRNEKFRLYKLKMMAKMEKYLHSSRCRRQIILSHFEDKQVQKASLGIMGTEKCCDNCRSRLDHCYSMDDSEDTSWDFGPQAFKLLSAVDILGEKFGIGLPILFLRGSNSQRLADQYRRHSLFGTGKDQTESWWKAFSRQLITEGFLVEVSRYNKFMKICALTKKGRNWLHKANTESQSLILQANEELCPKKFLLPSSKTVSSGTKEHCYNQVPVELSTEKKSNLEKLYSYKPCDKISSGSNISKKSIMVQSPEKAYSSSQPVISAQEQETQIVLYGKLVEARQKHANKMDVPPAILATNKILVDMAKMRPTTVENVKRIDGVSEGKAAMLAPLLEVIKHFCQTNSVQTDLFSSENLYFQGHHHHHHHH

As to `CCc1c(N2CCN(C(=O)c3c(O)ccc4ncoc34)[C@H]3CC[C@@H]32)c(=O)c2nn(-c3ccnc(OC)c3)nc2n1CC(=O)NC12CC(C(F)(F)F)(C1)C2` [Compound I-4, 2-(5-ethyl-6-((1S,6S)-5-(6-hydroxybenzo[d]oxazole-7-carbonyl)-2,5-diazabicyclo[4.2.0]octan-2-yl)-2-(2-methoxypyridin-4-yl)-7-oxo-2,7-dihydro-4H-[1,2,3]triazolo[4,5-b]pyridin-4-yl)-N-(3-(trifluoromethyl)bicyclo[1.1.1]pentan-1-yl)acetamide], the IC50 in assay [1] lay in the range of 5 to 50 nM. Further, the EC50 in assay [2] is at most 500 nM.
Turning to `CCc1c(N2CCN(C(=O)c3ccc4cccnc4c3O)[C@H]3CC[C@@H]32)c(=O)c2nn(C3=CCOCC3)nc2n1CC(=O)NC12CC(C(C)C)(C1)C2` [Compound I-159, 2-[2-(3,6-dihydro-2H-pyran-4-yl)-5-ethyl-6-[(1S,6S)-5-(8-hydroxyquinoline-7-carbonyl)-2,5-diazabicyclo[4.2.0]octan-2-yl]-7-oxo-2H,4H,7H-[1,2,3]triazolo[4,5-b]pyridin-4-yl]-N-[3-(propan-2-yl)bicyclo[1.1.1]pentan-1-yl]acetamide], the IC50 in assay [1] lay within 5 to 50 nM. In addition, the EC50 in assay [2] (Homo sapiens) lay in the range of 500 to 2000 nM.
With `CCc1c(N2CCN(C(=O)c3ncnc(C)c3O)CC2)c(=O)c2nn(-c3ccnc(OC)c3)nc2n1CC(=O)Nc1ccc(C(F)(F)F)cc1Cl` [Compound I-1, N-(2-chloro-4-(trifluoromethyl)phenyl)-2-(5-ethyl-6-(4-(5-hydroxy-6-methylpyrimidine-4-carbonyl)piperazin-1-yl)-2-(2-methoxypyridin-4-yl)-7-oxo-2,7-dihydro-4H-[1,2,3]triazolo[4,5-b]pyridin-4-yl)acetamide], the IC50 in assay [1] lay within 5 to 50 nM. For the same compound, the EC50 in assay [2] is at most 500 nM.
Regarding `CCc1c(N2CCN(C(=O)c3ncnc(C)c3O)CC2)c(=O)c2nn(-c3ccnc(OC)c3)nc2n1CC(=O)NC12CC(C3CCC3)(C1)C2` [Compound I-140, N-{3-cyclobutylbicyclo[1.1.1]pentan-1-yl}-2-{5-ethyl-6-[4-(5-hydroxy-6-methylpyrimidine-4-carbonyl)piperazin-1-yl]-2-(2-methoxypyridin-4-yl)-7-oxo-2H,4H,7H-[1,2,3]triazolo[4,5-b]pyridin-4-yl}acetamide], the IC50 in assay [1] was 5 to 50 nM. Also, the EC50 in assay [2] (Homo sapiens) was at most 500 nM.
With `CCc1c(N2CCN(C(=O)c3ncnc(C)c3O)[C@H]3CC[C@@H]32)c(=O)c2nn(-c3ccc(OC)nc3)nc2n1CC(=O)NC12CC(C(C)C)(C1)C2` [Compound I-156, 2-{5-ethyl-6-[(1S,6S)-5-(5-hydroxy-6-methylpyrimidine-4-carbonyl)-2,5-diazabicyclo[4.2.0]octan-2-yl]-2-(6-methoxypyridin-3-yl)-7-oxo-2H,4H,7H-[1,2,3]triazolo[4,5-b]pyridin-4-yl}-N-[3-(propan-2-yl)bicyclo[1.1.1]pentan-1-yl]acetamide], the IC50 in assay [1] lay in the range of 5 to 50 nM. Also, the EC50 in assay [2] (Homo sapiens) was at most 500 nM.
Take `CCc1c(N2CCN(C(=O)c3ncnc(C)c3O)CC2)c(=O)c2nn(-c3ccccn3)nc2n1CC(=O)NC12CC(C(C)C)(C1)C2` [Compound I-101, 2-{5-ethyl-6-[4-(5-hydroxy-6-methylpyrimidine-4-carbonyl)piperazin-1-yl]-7-oxo-2-(pyridin-2-yl)-2H,4H,7H-[1,2,3]triazolo[4,5-b]pyridin-4-yl}-N-[3-(propan-2-yl)bicyclo[1.1.1]pentan-1-yl]acetamide]: the IC50 in assay [1] is 5 to 50 nM. Further, the EC50 in assay [2] (Homo sapiens) lay within 500 to 2000 nM.
On the same counts, the results for `CCc1c(N2CCN(C(=O)c3ncnc(C)c3O)CC2)c(=O)c2nn(-c3ccccn3)nc2n1CC(=O)Nc1ccc(C(F)(F)F)cc1Cl` [Compound I-127, N-[2-chloro-4-(trifluoromethyl)phenyl]-2-{5-ethyl-6-[4-(5-hydroxy-6-methylpyrimidine-4-carbonyl)piperazin-1-yl]-7-oxo-2-(pyridin-2-yl)-2H,4H,7H-[1,2,3]triazolo[4,5-b]pyridin-4-yl}acetamide] are at most 5 nM and at most 500 nM.
The corresponding values for `CCc1c(N2CCN(C(=O)c3cccc4ncoc34)[C@H]3CC[C@@H]32)c(=O)c2nn(-c3ccnc(OC)c3)nc2n1CC(=O)Nc1ccc(C(F)(F)F)cc1Cl` [Compound I-107, 2-{6-[(1S,6S)-5-(1,3-benzoxazole-7-carbonyl)-2,5-diazabicyclo[4.2.0]octan-2-yl]-5-ethyl-2-(2-methoxypyridin-4-yl)-7-oxo-2H,4H,7H-[1,2,3]triazolo[4,5-b]pyridin-4-yl}-N-[2-chloro-4-(trifluoromethyl)phenyl]acetamide] are 5 to 50 nM and at most 500 nM.
On the same counts, the results for `CCc1c(N2CCN(C(=O)c3ncnc(C)c3O)[C@H]3CC[C@@H]32)c(=O)c2nn(-c3ncccc3F)nc2n1CC(=O)NC12CC(C(C)C)(C1)C2` [Compound I-163, 2-[5-ethyl-2-(3-fluoropyridin-2-yl)-6-[(1S,6S)-5-(5-hydroxy-6-methylpyrimidine-4-carbonyl)-2,5-diazabicyclo[4.2.0]octan-2-yl]-7-oxo-2H,4H,7H-[1,2,3]triazolo[4,5-b]pyridin-4-yl]-N-[3-(propan-2-yl)bicyclo[1.1.1]pentan-1-yl]acetamide] are 5 to 50 nM and above 5000 nM.
With `CCc1c(N2CCN(C(=O)c3c(O)cncc3OC)CC2)c(=O)c2nn(-c3ccnc(OC)c3)nc2n1CC(=O)NC12CC(C(C)C)(C1)C2` [Compound I-37, 2-{5-ethyl-6-[4-(3-hydroxy-5-methoxypyridine-4-carbonyl)piperazin-1-yl]-2-(2-methoxypyridin-4-yl)-7-oxo-2H,4H,7H-[1,2,3]triazolo[4,5-b]pyridin-4-yl}-N-[3-(propan-2-yl)bicyclo[1.1.1]pentan-1-yl]acetamide], in assay [1], the IC50 lay within 5 to 50 nM. The EC50 in assay [2] (Homo sapiens) was in the range of 500 to 2000 nM.
`CCc1c(N2CCN(C(=O)c3ncnc(C)c3O)[C@H]3CC[C@@H]32)c(=O)c2nn(-c3ccnc(OC)c3)nc2n1CC(=O)NC12CC(C3CC3)(C1)C2` [Compound I-30, N-{3-cyclopropylbicyclo[1.1.1]pentan-1-yl}-2-{5-ethyl-6-[(1S,6S)-5-(5-hydroxy-6-methylpyrimidine-4-carbonyl)-2,5-diazabicyclo[4.2.0]octan-2-yl]-2-(2-methoxypyridin-4-yl)-7-oxo-2H,4H,7H-[1,2,3]triazolo[4,5-b]pyridin-4-yl}acetamide]: the IC50 in assay [1] lay within 5 to 50 nM. The EC50 in assay [2] was at most 500 nM.
As to `CCc1c(N2CCN(C(=O)c3c(OC)nc(C(F)F)c(C)c3O)[C@H]3CC[C@@H]32)c(=O)c2nn(C3=CCOCC3)nc2n1CC(=O)NC12CC(C3CC3)(C1)C2` [Compound I-190, N-{3-cyclopropylbicyclo[1.1.1]pentan-1-yl}-2-{6-[(1S,6S)-5-[6-(difluoromethyl)-4-hydroxy-2-methoxy-5-methylpyridine-3-carbonyl]-2,5-diazabicyclo[4.2.0]octan-2-yl]-2-(3,6-dihydro-2H-pyran-4-yl)-5-ethyl-7-oxo-2H,4H,7H-[1,2,3]triazolo[4,5-b]pyridin-4-yl}acetamide], in assay [1], the IC50 is 5 to 50 nM. The EC50 in assay [2] (Homo sapiens) is at most 500 nM.
The corresponding values for `CCc1c(N2CCN(C(=O)c3c(OC)ncc(F)c3O)[C@H]3CC[C@@H]32)c(=O)c2nn(-c3ccnc(OC)c3)nc2n1CC(=O)NC12CC(C(C)C)(C1)C2` [Compound I-177, 2-{5-ethyl-6-[(1S,6S)-5-(5-fluoro-4-hydroxy-2-methoxypyridine-3-carbonyl)-2,5-diazabicyclo[4.2.0]octan-2-yl]-2-(2-methoxypyridin-4-yl)-7-oxo-2H,4H,7H-[1,2,3]triazolo[4,5-b]pyridin-4-yl}-N-[3-(propan-2-yl)bicyclo[1.1.1]pentan-1-yl]acetamide] are at most 5 nM and at most 500 nM.
On the same counts, the results for `CCc1c(N2CCN(C(=O)c3ncnc(C)c3O)[C@H]3CC[C@@H]32)c(=O)c2nn(-c3ccnc(OC)c3)nc2n1CC(=O)NC1CC2(C1)CC(C)(C)C2` [Compound I-72, N-{6,6-dimethylspiro[3.3]heptan-2-yl}-2-{5-ethyl-6-[(1S,6S)-5-(5-hydroxy-6-methylpyrimidine-4-carbonyl)-2,5-diazabicyclo[4.2.0]octan-2-yl]-2-(2-methoxypyridin-4-yl)-7-oxo-2H,4H,7H-[1,2,3]triazolo[4,5-b]pyridin-4-yl}acetamide] are 5 to 50 nM and 2000 to 5000 nM.
On the same counts, the results for `CCc1c(N2CCN(C(=O)c3c(C#N)cncc3OC)[C@H]3CC[C@@H]32)c(=O)c2nn(C3=CCOCC3)nc2n1CC(=O)NC12CC(C(C)C)(C1)C2` [Compound I-168, 2-{6-[(1S,6S)-5-(3-cyano-5-methoxypyridine-4-carbonyl)-2,5-diazabicyclo[4.2.0]octan-2-yl]-2-(3,6-dihydro-2H-pyran-4-yl)-5-ethyl-7-oxo-2H,4H,7H-[1,2,3]triazolo[4,5-b]pyridin-4-yl}-N-[3-(propan-2-yl)bicyclo[1.1.1]pentan-1-yl]acetamide] are 5 to 50 nM and 500 to 2000 nM.
As for `CCc1c(N2CCN(C(=O)c3cccc4c3OCCN4C)[C@H]3CC[C@@H]32)c(=O)c2nn(C3=CCOCC3)nc2n1CC(=O)NC12CC(C3CC3)(C1)C2` [Compound I-205, N-{3-cyclopropylbicyclo[1.1.1]pentan-1-yl}-2-[2-(3,6-dihydro-2H-pyran-4-yl)-5-ethyl-6-[(1S,6S)-5-(4-methyl-3,4-dihydro-2H-1,4-benzoxazine-8-carbonyl)-2,5-diazabicyclo[4.2.0]octan-2-yl]-7-oxo-2H,4H,7H-[1,2,3]triazolo[4,5-b]pyridin-4-yl]acetamide], the IC50 in assay [1] was in the range of 5 to 50 nM. In addition, the EC50 in assay [2] (Homo sapiens) lay within 500 to 2000 nM.
